Experimental data published in ChEMBL document CHEMBL1201862, “PubChem BioAssay data set” (2004).
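Exposure lasted 48 hours, with cells grown in 96-well plates and compounds tested at five concentrations. At the GI50, growth is halved.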 Calls of active or inactive are those of the source. No stated cut-off is given here; in the data, active = GI50 up to about 1.1 µM and inactive = higher. Where a SMILES comes first, the peptide text is derived from it. The star is where a group is joined. Boc = CC(C)(C)OC(=O)*

What was measured:
Assay in all cases: NCI anticancer screen, dose series, 48 h
M14 = test system: M14
A549 = test system: A549
HOP-92 = test system: HOP-92
MDA-N = test system: MDA-N
PC-3 = test system: PC-3
TK-10 = test system: TK-10
SK-MEL-2 = test system: SK-MEL-2
RXF 393 = test system: RXF 393
Malme-3M = test system: Malme-3M
NCI-H226 = test system: NCI-H226
A498 = test system: A498
SK-MEL-28 = test system: SK-MEL-28
SW-620 = test system: SW-620
HT-29 = test system: HT-29
MCF7 = test system: MCF7
OVCAR-3 = test system: OVCAR-3
CAKI-1 = test system: CAKI-1
HL-60 = test system: HL-60
SF-295 = test system: SF-295
SR = test system: SR

Measured: GI50

CSc1nc2ccccc2c(=O)n1/N=C1\C(=O)N(CN2CCOCC2)c2ccc(Cl)cc21
inactive: M14 26.5 µM | A549 35.4 µM | HOP-92 67 µM | MDA-N 31.8 µM | PC-3 29 µM | TK-10 16.9 µM | SK-MEL-2 20.6 µM | RXF 393 18.1 µM | Malme-3M > 100 µM | NCI-H226 53.3 µM | A498 26.2 µM | SK-MEL-28 56.2 µM | SW-620 17.6 µM | HT-29 23.7 µM | MCF7 19.6 µM | OVCAR-3 54.5 µM | CAKI-1 25.5 µM | HL-60 8.61 µM | SF-295 46.1 µM

Nc1ncnc2c1ncn2CC(OCP(=O)(O)O)Oc1ccccc1 (stereo not drawn)
inactive: M14 > 100 µM | A549 > 100 µM | HOP-92 > 100 µM | MDA-N > 100 µM | PC-3 > 100 µM | TK-10 > 100 µM | SK-MEL-2 > 100 µM | RXF 393 > 100 µM | NCI-H226 > 100 µM | A498 > 100 µM | SK-MEL-28 > 100 µM | SW-620 > 100 µM | MCF7 > 100 µM | OVCAR-3 > 100 µM | CAKI-1 > 100 µM | SF-295 > 100 µM

COc1ccc(/C=C2\N=C3Sc4c([nH]cnc4=O)N3C2=O)cc1
inactive: M14 > 100 µM | A549 > 100 µM | HOP-92 > 100 µM | MDA-N > 100 µM | PC-3 > 100 µM | TK-10 > 100 µM | SK-MEL-2 > 100 µM | RXF 393 > 100 µM | Malme-3M > 100 µM | NCI-H226 > 100 µM | A498 > 100 µM | SK-MEL-28 > 100 µM | SW-620 > 100 µM | HT-29 > 100 µM | MCF7 > 100 µM | OVCAR-3 > 100 µM | CAKI-1 > 100 µM | HL-60 > 100 µM | SF-295 > 100 µM

COC(=O)C1(CCCCl)CCCN1C(=O)OC(C)(C)C (stereo not drawn)
inactive: A549 > 100 µM | SR 10.5 µM | MDA-N > 100 µM | PC-3 > 100 µM | TK-10 > 100 µM | SK-MEL-2 > 100 µM | RXF 393 > 100 µM | NCI-H226 75.5 µM | SK-MEL-28 > 100 µM | SW-620 > 100 µM | HT-29 > 100 µM | MCF7 > 100 µM | OVCAR-3 > 100 µM | CAKI-1 > 100 µM | SF-295 > 100 µM

COc1cc2c3c(n(C)c(=O)c2cc1OC)-c1cc2c(cc1/C3=C\CCCCl)OCO2
inactive: M14 36.9 µM | A549 > 100 µM | HOP-92 82.2 µM | MDA-N > 100 µM | PC-3 > 100 µM | TK-10 20.1 µM | SK-MEL-2 25.5 µM | RXF 393 12.9 µM | Malme-3M > 100 µM | A498 25.3 µM | SK-MEL-28 89.7 µM | SW-620 > 100 µM | HT-29 39.7 µM | MCF7 42 µM | CAKI-1 25.9 µM | HL-60 55.1 µM | SF-295 19.9 µM

COC(=O)CNC(=O)C(Cc1ccccc1)NC(=O)C(CCSC)NC(=O)C(Cc1ccc(O)cc1)NC(=O)OC(C)(C)C (stereo not drawn) (Boc-YMFG-OMe; configuration not given here)
inactive: M14 > 100 µM | A549 > 100 µM | HOP-92 26.4 µM | MDA-N 33.3 µM | PC-3 > 100 µM | TK-10 > 100 µM | SK-MEL-2 18.1 µM | RXF 393 47.6 µM | Malme-3M > 100 µM | NCI-H226 > 100 µM | A498 > 100 µM | SK-MEL-28 18.2 µM | SW-620 40.3 µM | HT-29 33 µM | MCF7 41.8 µM | OVCAR-3 16.9 µM | CAKI-1 > 100 µM | HL-60 53 µM | SF-295 > 100 µM

O=c1[nH]c(=O)n([C@H]2C[C@H](O)[C@@H](CO)O2)cc1Br [BROXURIDINE]
inactive: M14 > 86.7 µM | A549 > 100 µM | HOP-92 > 100 µM | MDA-N > 100 µM | PC-3 > 100 µM | TK-10 > 100 µM | SK-MEL-2 > 100 µM | RXF 393 > 100 µM | Malme-3M > 85.9 µM | NCI-H226 > 100 µM | A498 > 100 µM | SK-MEL-28 > 86.5 µM | SW-620 > 100 µM | HT-29 > 100 µM | MCF7 17.7 µM | OVCAR-3 25.9 µM | CAKI-1 > 100 µM | SF-295 > 100 µM
